Laboratory results published in US20250388604A1, “Compounds and Their Use as PDE4 Activators” (Mironid Limited, priority 2022, published 2025).

The compounds below were run on m-IMCD3 cells (assay: Inhibition of PGE2-stimulated in vitro cyst formation in m-IMCD3 cells). Settings: 3 μM; mean cyst area, 100% for (DMSO + PGE2) and 0% for DMSO control; 6 days of culture.
Assay type: cell-based, mouse
Description: HEK 293 and MDCK cells (Public Health England, Cell Culture Collections) were maintained in Dulbecco's Modified Eagle's Medium (DMEM) supplemented with 10% (v/v) fetal bovine serum (FBS) (Seralab), 2 mM L-glutamine and 100 U/mL penicillin streptomycin cocktail (ThermoFisher); termed complete media. Clonal HEK 293 cell lines were maintained in complete media supplemented with 0.6 mg/ml G418 (Enzo Life Sciences). Mouse inner medullary collecting duct (m-IMCD3) cells [American Type Culture Collection (ATCC)] were maintained in media consisting of DMEM/Hams F-12 50/50 Mix (DMEM F12; Corning) supplemented with penicillin streptomycin cocktail (100 U/mL) and FBS (10% v/v) (DMEM F12-10% FBS).
The mouse Inner Medullary Collecting Duct cell line (m-IMCD3) spontaneously forms cystic spheroids in 3D culture with a Type 1 collagen/Matrigel extracellular matrix. This process can be stimulated with agents which raise intracellular cAMP and is used as an in vitro model for the formation of cystic structures in the kidneys of patients with ADPKD.
Rat Collagen I (Fisher Scientific) is prepared on ice by neutralising with 1M NaOH and diluting with a 2× volume of DMEM/F12+10% FBS. This is mixed 1:1.1 with ice cold Matrigel (Corning) for coating plates (coating mix), and 1:0.93 with Matrigel for cell plating (plating mix).
The assay is conducted in the wells of a 96-well plate culture dish using a total volume of 130 μL of collagen/Matrigel/DMEM F12-10% FBS suspension in growth media for each matrix plug per individual well. Initially, 30 μL of collagen/Matrigel/DMEM F12-10% FBS (coating mix) is added into the well of a 96 well plate and the collagen is set to a gel by incubating at 37° C. for at least 15 minutes. A second layer of 100 μL collagen/Matrigel suspension (plating mix) containing m-IMCD3 cells (2.75×10^6 m-IMCD3 cells per 96-well plate) is layered over the coating mix and the collagen/Matrigel/cell mix again set to a gel by incubating at 37° C. Cell cultures are maintained at 37° C. in an atmosphere of 5% CO2, 95% air.
Between 18 and 24 h after plating, test compound(s) as DMSO stock solutions [0.1% (v/v) final DMSO concentration] and PGE2 (100 nM final concentration) in DMEM F12-10% FBS are added in quadruplicate wells per condition. Media, together with the test compound and PGE2 are replenished after 2 or 3 days. After 6 days of culture z stack images of the wells are captured using the Nikon Eclipse Ti2-E microscope. Nikon General Analysis software is used to measure the following parameters in each well: the mean cyst area, the number of cysts, and the total cyst area.
PDE4 long form activators inhibited in vitro cyst formation in m-IMCD3 cells. Data are shown in Table 4 as mean cyst area (%), compared to 100% for (DMSO+PGE2) and 0% for DMSO control.

Row | Compound | % Cyst area after incubation with 3 μM test compound
1 | CC(C(=O)N1CCc2nc(N3C4CCC3CNC4)sc2C1)C(C)(C)C (single isomer, unassigned) [Example 158, 1-(2-(3,8-diazabicyclo[3.2.1]octan-8-yl)-6,7-dihydrothiazolo[5,4-c]pyridin-5(4H)-yl)-2,3,3-trimethylbutan-1-one] | 7%
2 | CC(C(=O)N1CCc2nc(N3C4CCC3CNC4)sc2C1)C(C)(C)C (single isomer, unassigned) [Example 159, 1-(2-(3,8-diazabicyclo[3.2.1]octan-8-yl)-6,7-dihydrothiazolo[5,4-c]pyridin-5(4H)-yl)-2,3,3-trimethylbutan-1-one] | 0%
3 | CC(O)(C(=O)N1CCc2nc(N3C4CCC3CNC4)sc2C1)C1CCCC1 (single isomer, unassigned) [Example 255, 1-(2-(3,8-diazabicyclo[3.2.1]octan-8-yl)-6,7-dihydrothiazolo[5,4-c]pyridin-5(4H)-yl)-2-cyclopentyl-2-hydroxypropan-1-one] | −5%

Same assay, conditions: Mus musculus, mIMCD3, 144 h, 3 μM; mean cyst area, 100% for (DMSO + PGE2) and 0% for DMSO control; 6 days of culture; read-out: % Cyst area after incubation with 3 μM test compound

Row | Compound | activity at 3 µM
4 | CC(O)(C(=O)N1CCc2nc(N3C4CCC3CNC4)sc2C1)C1CCCC1 (single isomer, unassigned) [Example 254, 1-(2-(3,8-diazabicyclo[3.2.1]octan-8-yl)-6,7-dihydrothiazolo[5,4-c]pyridin-5(4H)-yl)-2-cyclopentyl-2-hydroxypropan-1-one] | -5%

Same assay, conditions: Mus musculus, mIMCD3, 144 h, 10 μM; mean cyst area, 100% for (DMSO + PGE2) and 0% for DMSO control; 6 days of culture; read-out: % Cyst area after incubation with 10 μM test compound

Row | Compound | activity at 10 µM
5 | O=C(CC1CCC(F)(F)CC1)N1CCc2nc(N3C4CCC3CNC4)sc2C1 [Example 2, 1-(2-(3,8-diazabicyclo[3.2.1]octan-8-yl)-6,7-dihydrothiazolo[5,4-c]pyridin-5(4H)-yl)-2-(4,4-difluorocyclohexyl)ethan-1-one] | 2%
6 | O=C(CC1CCOCC1)N1CCc2nc(N3C4CCC3CNC4)sc2C1 [Example 3, 1-(2-(3,8-diazabicyclo[3.2.1]octan-8-yl)-6,7-dihydrothiazolo[5,4-c]pyridin-5(4H)-yl)-2-(tetrahydro-2H-pyran-4-yl)ethan-1-one] | 13%
7 | CC(C)OCC(=O)N1CCc2nc(N3C4CCC3CNC4)sc2C1 [Example 4, 1-(2-(3,8-diazabicyclo[3.2.1]octan-8-yl)-6,7-dihydrothiazolo[5,4-c]pyridin-5(4H)-yl)-2-isopropoxyethan-1-one] | 12%
8 | O=C(CCc1ccccc1)N1CCc2nc(N3C4CCC3CNC4)sc2C1 [Example 5, 1-(2-(3,8-diazabicyclo[3.2.1]octan-8-yl)-6,7-dihydrothiazolo[5,4-c]pyridin-5(4H)-yl)-3-phenylpropan-1-one] | -5%
9 | CC(C)CC(=O)N1CCc2nc(N3C4CCC3CNC4)sc2C1 [Example 9, 1-(2-(3,8-diazabicyclo[3.2.1]octan-8-yl)-6,7-dihydrothiazolo[5,4-c]pyridin-5(4H)-yl)-3-methylbutan-1-one] | 0%
10 | O=C(CC1CCC1)N1CCc2nc(N3C4CCC3CNC4)sc2C1 [Example 11, 1-(2-(3,8-diazabicyclo[3.2.1]octan-8-yl)-6,7-dihydrothiazolo[5,4-c]pyridin-5(4H)-yl)-2-cyclobutylethan-1-one] | -3%
11 | O=C(CC12CC(C1)C2)N1CCc2nc(N3C4CCC3CNC4)sc2C1 [Example 12, 1-(2-(3,8-diazabicyclo[3.2.1]octan-8-yl)-6,7-dihydrothiazolo[5,4-c]pyridin-5(4H)-yl)-2-(bicyclo[1.1.1]pentan-1-yl)ethan-1-one] | -2%
12 | CC[C@@H](C)C(=O)N1CCc2nc(N3C4CCC3CNC4)sc2C1 [Example 16, (2R)-1-(2-(3,8-diazabicyclo[3.2.1]octan-8-yl)-6,7-dihydrothiazolo[5,4-c]pyridin-5(4H)-yl)-2-methylbutan-1-one] | -2%
13 | CC(C)[C@@H](C)C(=O)N1CCc2nc(N3C4CCC3CNC4)sc2C1 [Example 19, (2R)-1-(2-(3,8-diazabicyclo[3.2.1]octan-8-yl)-6,7-dihydrothiazolo[5,4-c]pyridin-5(4H)-yl)-2,3-dimethylbutan-1-one] | -2%
14 | CC(C)C(=O)N1CCc2nc(N3C4CCC3CNC4)sc2C1 [Example 20, 1-(2-(3,8-diazabicyclo[3.2.1]octan-8-yl)-6,7-dihydrothiazolo[5,4-c]pyridin-5(4H)-yl)-2-methylpropan-1-one] | 9%
15 | O=C(COc1ccc(F)cc1)N1CCc2nc(N3C4CCC3CNC4)sc2C1 [Example 21, 1-(2-(3,8-diazabicyclo[3.2.1]octan-8-yl)-6,7-dihydrothiazolo[5,4-c]pyridin-5(4H)-yl)-2-(4-fluorophenoxy)ethan-1-one] | -1%
16 | O=C(C1CCCC1)N1CCc2nc(N3C4CCC3CNC4)sc2C1 [Example 22, (2-(3,8-diazabicyclo[3.2.1]octan-8-yl)-6,7-dihydrothiazolo[5,4-c]pyridin-5(4H)-yl)(cyclopentyl)methanone] | -2%
17 | CC(Oc1ccccc1)C(=O)N1CCc2nc(N3C4CCC3CNC4)sc2C1 (centres unmarked) [Example 23, 1-(2-(3,8-diazabicyclo[3.2.1]octan-8-yl)-6,7-dihydrothiazolo[5,4-c]pyridin-5(4H)-yl)-2-phenoxypropan-1-one] | 0%
18 | O=C(N1CCc2nc(N3C4CCC3CNC4)sc2C1)C(F)(F)C1CCCC1 [Example 24, 1-(2-(3,8-diazabicyclo[3.2.1]octan-8-yl)-6,7-dihydrothiazolo[5,4-c]pyridin-5(4H)-yl)-2-cyclopentyl-2,2-difluoroethan-1-one] | 0%
19 | O=C(Cc1ccc(F)cc1)N1CCc2nc(N3C4CCC3CNC4)sc2C1 [Example 25, 1-(2-(3,8-diazabicyclo[3.2.1]octan-8-yl)-6,7-dihydrothiazolo[5,4-c]pyridin-5(4H)-yl)-2-(4-fluorophenyl)ethan-1-one] | 6%
20 | O=C(CC(F)(F)F)N1CCc2nc(N3C4CCC3CNC4)sc2C1 [Example 26, 1-(2-(3,8-diazabicyclo[3.2.1]octan-8-yl)-6,7-dihydrothiazolo[5,4-c]pyridin-5(4H)-yl)-3,3,3-trifluoropropan-1-one] | 1%
21 | CC(C)C(O)C(=O)N1CCc2nc(N3C4CCC3CNC4)sc2C1 (centres unmarked) [Example 28, 1-(2-(3,8-diazabicyclo[3.2.1]octan-8-yl)-6,7-dihydrothiazolo[5,4-c]pyridin-5(4H)-yl)-2-hydroxy-3-methylbutan-1-one] | 3%
22 | CC(C)(Oc1ccccc1)C(=O)N1CCc2nc(N3C4CCC3CNC4)sc2C1 [Example 30, 1-(2-(3,8-diazabicyclo[3.2.1]octan-8-yl)-6,7-dihydrothiazolo[5,4-c]pyridin-5(4H)-yl)-2-methyl-2-phenoxypropan-1-one] | 1%
23 | O=C(N1CCc2nc(N3C4CCC3CNC4)sc2C1)C1(Oc2ccccc2)CC1 [Example 31, (2-(3,8-diazabicyclo[3.2.1]octan-8-yl)-6,7-dihydrothiazolo[5,4-c]pyridin-5(4H)-yl)(1-phenoxycyclopropyl)methanone] | 7%
24 | CC(C)(C(=O)N1CCc2nc(N3C4CCC3CNC4)sc2C1)C(F)(F)F [Example 32, 1-(2-(3,8-diazabicyclo[3.2.1]octan-8-yl)-6,7-dihydrothiazolo[5,4-c]pyridin-5(4H)-yl)-3,3,3-trifluoro-2,2-dimethylpropan-1-one] | 1%
25 | O=C(N1CCc2nc(N3C4CCC3CNC4)sc2C1)C1(c2ccccc2)CC1 [Example 33, (2-(3,8-diazabicyclo[3.2.1]octan-8-yl)-6,7-dihydrothiazolo[5,4-c]pyridin-5(4H)-yl)(1-phenylcyclopropyl)methanone] | 8%
26 | O=C(C(F)C1CCCC1)N1CCc2nc(N3C4CCC3CNC4)sc2C1 (centres unmarked) [Example 34, 1-(2-(3,8-diazabicyclo[3.2.1]octan-8-yl)-6,7-dihydrothiazolo[5,4-c]pyridin-5(4H)-yl)-2-cyclopentyl-2-fluoroethan-1-one] | -2%
